Paper PMC12504763, “Antiproliferation, 3D-multicellular spheroid and VEGFR-2 inhibitory properties of spiroindolin-2-ones with phosphonate function” (Scientific Reports, 2025)
Where “and” joins values, the source holds several entries; their conditions need not be identical. Equal values may be shown once. Read-outs that look alike come from different tables or passages of the source.

Assays:
[1] = tested on: HCT116 (colon) cancer cell line; assay: 2D-monolayer antiproliferation (MTT) against HCT116; assay type: cell-based, human; conditions: for IC50: Homo sapiens, HCT-116; for SI (selectivity index) HCT116: IC50 of RPE1 normal cell/IC50 of HCT116
[2] = tested on: PaCa2 (pancreatic) cancer cell line; assay: 2D-monolayer antiproliferation (MTT) against PaCa2; assay type: cell-based, human; conditions: for 1/(observed property): 1/observed IC50 (μM), PaCa2; for IC50: Homo sapiens, PaCa-2, MTT, 72 h incubation, PaCa2 pancreatic, read-out: IC50, μM ± SEM PaCa2; for SI (selectivity index) PaCa2: IC50 of RPE1 normal cell/IC50 of PaCa2
[3] = tested on: MCF7 (breast) cancer cell line; assay: 2D-monolayer antiproliferation (MTT) against MCF7; assay type: cell-based, human; conditions: for IC50: Homo sapiens, MTT, 72 h incubation, MCF7 breast, read-out: IC50, μM ± SEM MCF7; for SI (selectivity index) MCF7: IC50 of RPE1 normal cell/IC50 of MCF7
[4] = tested on: A549 (lung) cancer cell line; assay: 2D-monolayer antiproliferation (MTT) against A549; assay type: cell-based, human; conditions: for IC50: Homo sapiens, MTT, 72 h incubation, A549 lung, read-out: IC50, μM ± SEM A549; for SI (selectivity index) A549: IC50 of RPE1 normal cell/IC50 of A549
[5] = tested on: RPE1 (normal human immortalized retinal pigment epithelial cell line); assay: cells; assay type: cell-based; conditions: Homo sapiens, RPE-1; MTT, normal RPE1 cell; read-out: IC50, μM ± SEM RPE1
VEGFR-2 [6] = target: T1, VEGFR-2 (Homo sapiens, UniProt P35968); assay: cell-based; assay type: cell-based; conditions: for inhibition at 10 µM: HCT-116, HCT116; for VEGFR-2 pg/mL ± SEM HCT116: at 10 μM, control 317.80 ± 3.5
T1 construct: endogenous in cells; host or cells: HCT116, PaCa2, MCF7 (human cancer cell lines, ATCC origin)
T1 sequence (P35968 20-1356): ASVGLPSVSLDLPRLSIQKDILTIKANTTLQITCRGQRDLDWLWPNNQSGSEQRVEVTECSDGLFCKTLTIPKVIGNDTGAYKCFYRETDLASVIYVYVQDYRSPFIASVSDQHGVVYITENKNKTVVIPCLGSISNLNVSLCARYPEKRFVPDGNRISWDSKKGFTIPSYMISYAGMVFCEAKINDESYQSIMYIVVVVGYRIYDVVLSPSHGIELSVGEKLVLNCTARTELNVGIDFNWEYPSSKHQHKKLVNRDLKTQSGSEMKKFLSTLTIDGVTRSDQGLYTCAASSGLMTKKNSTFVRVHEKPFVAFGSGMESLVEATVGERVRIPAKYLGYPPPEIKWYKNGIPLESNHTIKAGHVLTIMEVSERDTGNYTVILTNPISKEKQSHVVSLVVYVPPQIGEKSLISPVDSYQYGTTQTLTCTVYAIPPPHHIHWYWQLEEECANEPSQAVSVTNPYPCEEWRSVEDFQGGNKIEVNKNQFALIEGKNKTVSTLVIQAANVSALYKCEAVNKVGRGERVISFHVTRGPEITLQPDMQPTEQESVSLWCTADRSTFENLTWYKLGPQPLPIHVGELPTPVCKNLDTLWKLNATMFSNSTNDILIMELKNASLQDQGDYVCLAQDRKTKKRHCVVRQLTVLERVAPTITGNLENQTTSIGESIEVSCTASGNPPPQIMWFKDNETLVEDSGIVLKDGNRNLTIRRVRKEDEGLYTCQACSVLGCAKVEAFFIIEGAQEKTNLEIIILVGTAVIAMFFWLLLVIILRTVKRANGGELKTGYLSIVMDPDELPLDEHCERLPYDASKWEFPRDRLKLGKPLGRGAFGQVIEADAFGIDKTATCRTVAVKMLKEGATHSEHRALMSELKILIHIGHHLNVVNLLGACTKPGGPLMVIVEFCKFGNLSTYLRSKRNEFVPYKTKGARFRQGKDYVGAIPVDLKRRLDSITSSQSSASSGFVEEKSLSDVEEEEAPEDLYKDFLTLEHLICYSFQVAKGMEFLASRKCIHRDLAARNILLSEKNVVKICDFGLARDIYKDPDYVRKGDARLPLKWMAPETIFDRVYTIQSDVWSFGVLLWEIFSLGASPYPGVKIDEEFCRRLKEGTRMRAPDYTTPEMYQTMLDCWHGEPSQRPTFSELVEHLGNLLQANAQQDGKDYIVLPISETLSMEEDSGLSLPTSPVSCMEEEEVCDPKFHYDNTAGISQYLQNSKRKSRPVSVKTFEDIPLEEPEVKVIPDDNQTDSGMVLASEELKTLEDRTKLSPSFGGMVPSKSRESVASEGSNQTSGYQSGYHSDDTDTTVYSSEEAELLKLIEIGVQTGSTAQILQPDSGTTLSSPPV

VEGFR-2 [7] = target: T1, VEGFR-2; assay: cell-based; assay type: cell-based; conditions: for inhibition at 10 µM: PaCa-2, PaCa2; for VEGFR-2 pg/mL ± SEM PaCa2: at 10 μM, control 326.80 ± 1.9
VEGFR-2 [8] = target: T1, VEGFR-2; assay: cell-based; assay type: cell-based; conditions: for inhibition at 10 µM: MCF7; for VEGFR-2 pg/mL ± SEM MCF7: at 10 μM, control 258.70 ± 2.3
COX-1 = target: T2, COX-1 (Ovis aries, UniProt P05979); assay: biochemical; conditions: 3 replicates, read-out: % Inhibition of COX-1 ± SEM
T2 construct: purchased BioVision incorporated USA K548–100
T2 sequence (P05979 25-600): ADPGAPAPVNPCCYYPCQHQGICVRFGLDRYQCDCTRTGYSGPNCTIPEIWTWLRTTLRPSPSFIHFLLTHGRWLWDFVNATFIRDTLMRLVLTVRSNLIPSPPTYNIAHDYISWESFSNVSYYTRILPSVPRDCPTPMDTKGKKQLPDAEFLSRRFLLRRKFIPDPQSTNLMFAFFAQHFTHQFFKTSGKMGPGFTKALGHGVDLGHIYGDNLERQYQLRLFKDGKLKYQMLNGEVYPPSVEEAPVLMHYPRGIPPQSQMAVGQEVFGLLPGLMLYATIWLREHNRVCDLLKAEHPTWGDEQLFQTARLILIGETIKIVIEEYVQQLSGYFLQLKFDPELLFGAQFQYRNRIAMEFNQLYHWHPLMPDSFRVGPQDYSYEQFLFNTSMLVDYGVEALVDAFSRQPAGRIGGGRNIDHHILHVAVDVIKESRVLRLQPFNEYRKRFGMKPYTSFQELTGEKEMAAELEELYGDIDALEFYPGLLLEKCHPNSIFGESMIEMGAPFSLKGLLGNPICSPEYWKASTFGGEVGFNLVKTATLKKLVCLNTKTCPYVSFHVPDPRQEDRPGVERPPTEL

COX-2 = target: T3, COX-2 (Homo sapiens, UniProt P35354); assay: biochemical; conditions: for inhibition at 10 µM: 3 replicates, read-out: % Inhibition of COX-2 ± SEM; for SI (selectivity index, COX-2/COX-1): at 10 μM
T3 construct: purchased BioVision incorporated USA K548–100
T3 sequence (P35354 18-604): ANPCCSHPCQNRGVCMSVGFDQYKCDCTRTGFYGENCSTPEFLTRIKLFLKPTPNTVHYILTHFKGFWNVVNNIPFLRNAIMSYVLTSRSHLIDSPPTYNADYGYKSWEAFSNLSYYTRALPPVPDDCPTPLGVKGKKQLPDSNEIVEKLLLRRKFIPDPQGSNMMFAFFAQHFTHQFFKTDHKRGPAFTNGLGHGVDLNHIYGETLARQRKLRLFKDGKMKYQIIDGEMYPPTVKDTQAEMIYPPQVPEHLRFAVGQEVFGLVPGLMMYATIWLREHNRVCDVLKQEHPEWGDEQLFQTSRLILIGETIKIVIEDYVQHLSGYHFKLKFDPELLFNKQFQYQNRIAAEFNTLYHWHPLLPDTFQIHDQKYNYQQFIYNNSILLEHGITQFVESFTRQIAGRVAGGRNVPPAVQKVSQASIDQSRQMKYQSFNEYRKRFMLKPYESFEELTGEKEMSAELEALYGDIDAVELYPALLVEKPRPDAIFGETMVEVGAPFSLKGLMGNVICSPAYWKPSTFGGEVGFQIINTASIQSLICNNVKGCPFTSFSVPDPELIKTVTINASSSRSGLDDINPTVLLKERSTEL

TNF-α [9] = assay: TNF-α inhibitory properties (ELISA), HCT116 cell lysate; assay type: cell-based, human; conditions: at 10 μM; for TNF-α pg/mL (± SEM) HCT116: control 95.74 ± 0.5
TNF-α [10] = assay: TNF-α inhibitory properties (ELISA), PaCa2 cell lysate; assay type: cell-based, human; conditions: at 10 μM; for TNF-α pg/mL (± SEM) PaCa2: control 111.8 ± 2.0
TNF-α [11] = assay: TNF-α inhibitory properties (ELISA), MCF7 cell lysate; assay type: cell-based, human; conditions: at 10 μM; for TNF-α pg/mL (± SEM) MCF7: control 83.26 ± 1.1
CAM blood vessel network = assay: Chick chorioallantoic membrane (CAM) anti-angiogenic assay; assay type: in vivo, chicken; conditions: 20 μL of 660 μM, 3 days; for Diameter of blood vessel (μm ± SEM): CAM test, control 459.7 ± 13.8
Protocol: CAM assay is an established xenograft technique for investigating the angiogenic effect due to the high resemblance of the human vascularized epithelium basement membrane with that of the chorioallantoic layer containing mainly type IV collagen[84]–[86].
Fig. 10 Images of light microscopy for anti-angiogenic evaluation of the tested compounds using CAM assay. […] The glass slide was placed on the surface of the CAM blood vessel network and left in an incubator at 37 °C for 3 days. The CAM blood vessel network was carefully cut and imaged under a light microscope (40 × magnification).
Fertilized white chicken eggs were incubated in a 37 °C incubator with constant humidity. On day 8, a small squared window was opened allowing the detachment of the growing CAM and shell. The opening was covered with an elastic bandage. […] The CAM was then sealed with a bandage and placed back in the incubator. CAMs were examined daily until day 12 (3 days), the vascularized membranes were then cut around the glass slide and fixed in 5% formalin. Images were taken with an Evos microscope at 40x and 100x magnification^9. Main blood vessel in the microscopic images of controls and samples were quantified by imageJ and analyzed for significant differences (n = 4).

HCT116 3D-spheroid = HCT116 3D-spheroid at 50 μM, relative to control
[12] = tested on: A549 (lung) cancer cell line; design: method as in Reference 45; conditions: standard drug doxorubicin; ref Reference 45; cited from earlier work
[13] = tested on: PaCa2 (pancreatic) cancer cell line; design: method as in Reference 30; conditions: standard drug sunitinib; ref Reference 30; cited from earlier work
[14] = MTT, 72 h incubation, HCT116 colon, read-out: IC50, μM ± SEM HCT116
[15] = log of observed IC50 (μM), HCT116, read-out: Log(observed property) (converted)

Structure (SMILES)	IC50 [1, 14] [µM]	IC50 [1, 15] [µM]	SI (selectivity index) HCT116 [1]	1/(observed property) [2]	IC50 [2] [µM]	SI (selectivity index) PaCa2 [2]	IC50 [3] [µM]	SI (selectivity index) MCF7 [3]	IC50 [4] [µM]	SI (selectivity index) A549 [4]	IC50 [5] [µM]	inhibition at 10 µM (VEGFR-2 [6]) [%]	VEGFR-2 pg/mL ± SEM HCT116 (VEGFR-2 [6]) [pg/mL]	inhibition at 10 µM (VEGFR-2 [7]) [%]	VEGFR-2 pg/mL ± SEM PaCa2 (VEGFR-2 [7]) [pg/mL]	inhibition at 10 µM (VEGFR-2 [8]) [%]	VEGFR-2 pg/mL ± SEM MCF7 (VEGFR-2 [8]) [pg/mL]	inhibition at 10 µM (COX-1) [%]	inhibition at 10 µM (COX-2) [%]	Diameter of blood vessel (μm ± SEM) (CAM blood vessel network) [μm]	also measured
CCOP(=O)(OCC)N1C/C(=C\c2ccc(OC)cc2)C(=O)C2(C1)C(c1ccc(OC)cc1)CN(C)C21C(=O)Nc2ccccc21 (centres unmarked) [Compound 17p, Diethyl (E)-[5′′-(4-methoxybenzylidene)-4′-(4-methoxyphenyl)-1′-methyl-2,4′′-dioxodispiro[indoline-3,2′-pyrrolidine-3′,3′′-piperidin]-1′′-yl]phosphonate]	5.51 ± 0.138	5.51	2.6	0.1367	7.32 ± 0.226	1.9	5.43 ± 0.14	2.6	13 ± 0.284	1.1	14.2 ± 0.638	90	31.80 ± 0.8	93.3	21.76 ± 0.4	81.3	48.30 ± 0.4	51.1 ± 2.7	53.5 ± 2.1	79.3 ± 3.3	SI (selectivity index, COX-2/COX-1) (COX-2): 1.10; TNF-α pg/mL (± SEM) HCT116 (TNF-α [9]): 26.21 ± 1.3 pg/mL; TNF-α pg/mL (± SEM) PaCa2 (TNF-α [10]): 25.8 ± 1.8 pg/mL; TNF-α % inhibition MCF7 (TNF-α [11]): 65.7%; TNF-α pg/mL (± SEM) MCF7 (TNF-α [11]): 28.56 ± 2.9 pg/mL; %CT (± SEM), percentage cytotoxicity (HCT116 3D-spheroid): 68.3% and 68.3 ± 0.6%
CCOP(=O)(OCC)N1C/C(=C\c2cccs2)C(=O)C2(C1)C(c1cccs1)CN(C)C21C(=O)Nc2ccc(Cl)cc21 (centres unmarked) [Compound 17s, Diethyl (E)-[5-chloro-1′-methyl-2,4′′-dioxo-4′-(thiophen-2-yl)-5′′-(thiophen-2-ylmethylene)dispiro[indoline-3,2′-pyrrolidine-3′,3′′-piperidin]-1′′-yl]phosphonate]	5.42 ± 0.288	5.42	1.9	0.163	6.13 ± 0.131	1.7	4.64 ± 0.068	2.2	8.1 ± 0.091	1.3	10.2 ± 0.545	83.1	53.80 ± 0.9	91.9	26.50 ± 0.5	81.6	47.60 ± 0.6	53.8 ± 2.8	56.3 ± 2.3	61.3 ± 4.3	SI (selectivity index, COX-2/COX-1) (COX-2): 0.83; TNF-α % inhibition HCT116 (TNF-α [9]): 9.6%; TNF-α pg/mL (± SEM) HCT116 (TNF-α [9]): 86.57 ± 2.0 pg/mL; TNF-α % inhibition PaCa2 (TNF-α [10]): 19.0%; TNF-α pg/mL (± SEM) PaCa2 (TNF-α [10]): 90.6 ± 2.8 pg/mL; TNF-α % inhibition MCF7 (TNF-α [11]): 1.9%; TNF-α pg/mL (± SEM) MCF7 (TNF-α [11]): 81.64 ± 3.7 pg/mL; % Inhibition of the blood vessels in CAM test (CAM blood vessel network): 86.7%; %CT (± SEM), percentage cytotoxicity (HCT116 3D-spheroid): 77.9% and 77.9 ± 1.2%
COc1cccc2c1C(=O)c1c(O)c3c(c(O)c1C2=O)C[C@@](O)(C(=O)CO)C[C@@H]3O[C@H]1C[C@H](N)[C@H](O)[C@H](C)O1 [Doxorubicin]	–	–	–	–	–	–	–	–	–	–	–	–	–	–	–	–	–	–	–	–	IC50 [12]: 5.93 µM
CCN(CC)CCNC(=O)c1c(C)[nH]c(/C=C2\C(=O)Nc3ccc(F)cc32)c1C [Sunitinib, reference compound]	–	–	–	–	–	–	–	–	–	–	–	–	–	–	–	–	–	–	–	52.3 ± 1.7	% Inhibition of the blood vessels in CAM test (CAM blood vessel network): 88.6%; IC50 [13]: 16.9 µM
